Assay results as given in the NIST ThermoML archive (doi:10.1021/je0497496).
“And” between values parts separate entries of the source, which are not always exact repeats. Equal entries are not always repeated. ± gives the expanded uncertainty stated by the source.

Details: for vapor or sublimation pressure: Closed cell (Static) method; for mass density: buoyancy

FCC(F)(F)F [1,1,1,2-tetrafluoroethane]
vapor or sublimation pressure (253.13 K, Liquid): 133.58 ± 1.1 kPa and 133.6 ± 1.1 kPa | mass density (253.13 K, Liquid): 1358.69 ± 0.4 kg/m3 and 1358.7 ± 0.4 kg/m3 | mass density (262.98 K, 30.04 kPa, Fluid (supercritical or subcritical phases)): 1.41703 ± 0.052 kg/m3 | mass density (262.99 K, 30.02 kPa, Fluid (supercritical or subcritical phases)): 1.41553 ± 0.052 kg/m3 and 1.41816 ± 0.052 kg/m3 | mass density (262.99 K, 50.03 kPa, Fluid (supercritical or subcritical phases)): 2.37378 ± 0.052 kg/m3 | mass density (262.99 K, 80.08 kPa, Fluid (supercritical or subcritical phases)): 3.83561 ± 0.053 kg/m3 | mass density (262.99 K, 100.09 kPa, Fluid (supercritical or subcritical phases)): 4.82696 ± 0.055 kg/m3 | mass density (262.99 K, 150.06 kPa, Fluid (supercritical or subcritical phases)): 7.37304 ± 0.055 kg/m3 | vapor or sublimation pressure (262.99 K, Liquid): 200.47 ± 1.1 kPa | mass density (262.99 K, Liquid): 1327.33 ± 0.4 kg/m3 | vapor or sublimation pressure (263 K, Liquid): 200.48 ± 1.1 kPa | mass density (263 K, Liquid): 1327.31 ± 0.4 kg/m3 | mass density (273.31 K, 50 kPa, Fluid (supercritical or subcritical phases)): 2.27757 ± 0.051 kg/m3 and 2.2813 ± 0.051 kg/m3 | mass density (273.31 K, 100.01 kPa, Fluid (supercritical or subcritical phases)): 4.6218 ± 0.052 kg/m3 | mass density (273.31 K, 150.01 kPa, Fluid (supercritical or subcritical phases)): 7.03559 ± 0.053 kg/m3 | mass density (273.31 K, 200 kPa, Fluid (supercritical or subcritical phases)): 9.53172 ± 0.055 kg/m3 | vapor or sublimation pressure (273.31 K, Liquid): 295.5 ± 1.2 kPa | mass density (273.31 K, Liquid): 1293.96 ± 0.39 kg/m3 | mass density (273.32 K, 250 kPa, Fluid (supercritical or subcritical phases)): 12.1179 ± 0.056 kg/m3 | mass density (283.16 K, 100.09 kPa, Fluid (supercritical or subcritical phases)): 4.4428 ± 0.051 kg/m3 | mass density (283.16 K, 200.02 kPa, Fluid (supercritical or subcritical phases)): 9.12611 ± 0.052 kg/m3 | mass density (283.16 K, 300.08 kPa, Fluid (supercritical or subcritical phases)): 14.1052 ± 0.054 kg/m3 | vapor or sublimation pressure (283.16 K, Liquid): 415.71 ± 1.3 kPa | mass density (283.16 K, Liquid): 1260.66 ± 0.38 kg/m3 | mass density (283.17 K, 100.1 kPa, Fluid (supercritical or subcritical phases)): 4.44579 ± 0.051 kg/m3 | mass density (283.17 K, 350.92 kPa, Fluid (supercritical or subcritical phases)): 16.7525 ± 0.056 kg/m3 | vapor or sublimation pressure (283.17 K, Liquid): 415.71 ± 1.3 kPa | mass density (283.17 K, Liquid): 1260.67 ± 0.38 kg/m3 | mass density (293.21 K, 399.98 kPa, Fluid (supercritical or subcritical phases)): 18.4354 ± 0.056 kg/m3 | mass density (293.21 K, 500.02 kPa, Fluid (supercritical or subcritical phases)): 23.7422 ± 0.057 kg/m3 | mass density (293.22 K, 100.05 kPa, Fluid (supercritical or subcritical phases)): 4.27783 ± 0.049 kg/m3 and 4.27519 ± 0.049 kg/m3 | mass density (293.22 K, 200.05 kPa, Fluid (supercritical or subcritical phases)): 8.76202 ± 0.05 kg/m3 and 8.75976 ± 0.05 kg/m3 | mass density (293.22 K, 300.02 kPa, Fluid (supercritical or subcritical phases)): 13.4608 ± 0.052 kg/m3 | vapor or sublimation pressure (293.22 K, Liquid): 571.94 ± 1.5 kPa and 571.98 ± 1.5 kPa | mass density (293.22 K, Liquid): 1225.34 ± 0.38 kg/m3 and 1225.33 ± 0.38 kg/m3 | mass density (303.25 K, 100.02 kPa, Fluid (supercritical or subcritical phases)): 4.1211 ± 0.048 kg/m3 and 4.12406 ± 0.048 kg/m3 | vapor or sublimation pressure (303.25 K, Liquid): 771.67 ± 1.7 kPa | mass density (303.25 K, Liquid): 1187.23 ± 0.37 kg/m3 | mass density (303.26 K, 299.99 kPa, Fluid (supercritical or subcritical phases)): 12.8979 ± 0.05 kg/m3 | mass density (303.26 K, 499.91 kPa, Fluid (supercritical or subcritical phases)): 22.542 ± 0.056 kg/m3 | mass density (303.26 K, 711.4 kPa, Fluid (supercritical or subcritical phases)): 34.0053 ± 0.059 kg/m3 | vapor or sublimation pressure (303.26 K, Liquid): 771.76 ± 1.7 kPa | mass density (303.26 K, Liquid): 1187.22 ± 0.37 kg/m3 | mass density (313.17 K, 100.02 kPa, Fluid (supercritical or subcritical phases)): 3.98495 ± 0.046 kg/m3 and 3.98345 ± 0.046 kg/m3 | mass density (313.17 K, 200.04 kPa, Fluid (supercritical or subcritical phases)): 8.11408 ± 0.048 kg/m3 | mass density (313.17 K, 600.21 kPa, Fluid (supercritical or subcritical phases)): 26.4214 ± 0.055 kg/m3 | mass density (313.17 K, 902.11 kPa, Fluid (supercritical or subcritical phases)): 42.8957 ± 0.062 kg/m3 | mass density (313.18 K, 400.01 kPa, Fluid (supercritical or subcritical phases)): 16.8674 ± 0.05 kg/m3 | mass density (313.18 K, 800.41 kPa, Fluid (supercritical or subcritical phases)): 37.0004 ± 0.059 kg/m3 | vapor or sublimation pressure (313.18 K, Liquid): 1018.1 ± 2.1 kPa | mass density (313.18 K, Liquid): 1146.44 ± 0.37 kg/m3 | mass density (323.19 K, 100.02 kPa, Fluid (supercritical or subcritical phases)): 3.85767 ± 0.045 kg/m3 and 3.85694 ± 0.045 kg/m3 | mass density (323.19 K, 500 kPa, Fluid (supercritical or subcritical phases)): 20.6111 ± 0.051 kg/m3 | mass density (323.19 K, 940.01 kPa, Fluid (supercritical or subcritical phases)): 42.4962 ± 0.064 kg/m3 | mass density (323.19 K, 1271.1 kPa, Fluid (supercritical or subcritical phases)): 62.9174 ± 0.068 kg/m3 | vapor or sublimation pressure (323.19 K, Liquid): 1319.8 ± 2.5 kPa | mass density (323.19 K, Liquid): 1102.35 ± 0.36 kg/m3 | mass density (323.2 K, 300 kPa, Fluid (supercritical or subcritical phases)): 11.9392 ± 0.047 kg/m3 | mass density (323.2 K, 802.37 kPa, Fluid (supercritical or subcritical phases)): 35.149 ± 0.054 kg/m3 | vapor or sublimation pressure (323.2 K, Liquid): 1319.9 ± 2.5 kPa | mass density (323.2 K, Liquid): 1102.34 ± 0.36 kg/m3 | mass density (333.16 K, 101.53 kPa, Fluid (supercritical or subcritical phases)): 3.7964 ± 0.044 kg/m3 | mass density (333.16 K, 303.79 kPa, Fluid (supercritical or subcritical phases)): 11.6786 ± 0.045 kg/m3 | mass density (333.16 K, 1500 kPa, Fluid (supercritical or subcritical phases)): 73.4336 ± 0.072 kg/m3 | vapor or sublimation pressure (333.16 K, Liquid): 1683 ± 3.1 kPa | mass density (333.16 K, Liquid): 1052.61 ± 0.37 kg/m3 | mass density (333.17 K, 101.53 kPa, Fluid (supercritical or subcritical phases)): 3.79264 ± 0.044 kg/m3 | mass density (333.17 K, 502.7 kPa, Fluid (supercritical or subcritical phases)): 19.9182 ± 0.049 kg/m3 | mass density (333.17 K, 801.13 kPa, Fluid (supercritical or subcritical phases)): 33.4094 ± 0.052 kg/m3 | mass density (333.17 K, 1009.4 kPa, Fluid (supercritical or subcritical phases)): 43.8443 ± 0.059 kg/m3 | mass density (333.17 K, 1300.4 kPa, Fluid (supercritical or subcritical phases)): 60.3214 ± 0.066 kg/m3 | vapor or sublimation pressure (333.17 K, Liquid): 1683.2 ± 3.1 kPa | mass density (333.17 K, Liquid): 1052.6 ± 0.37 kg/m3 | mass density (343.03 K, 136.28 kPa, Fluid (supercritical or subcritical phases)): 4.96602 ± 0.043 kg/m3 | mass density (343.03 K, 1500 kPa, Fluid (supercritical or subcritical phases)): 68.2379 ± 0.068 kg/m3 | mass density (343.03 K, 1704.5 kPa, Fluid (supercritical or subcritical phases)): 81.5238 ± 0.075 kg/m3 | vapor or sublimation pressure (343.03 K, Liquid): 2110.6 ± 3.8 kPa | mass density (343.03 K, Liquid): 997.103 ± 0.38 kg/m3 | mass density (343.04 K, 136.71 kPa, Fluid (supercritical or subcritical phases)): 4.97127 ± 0.043 kg/m3 | mass density (343.04 K, 303.78 kPa, Fluid (supercritical or subcritical phases)): 11.2865 ± 0.044 kg/m3 | mass density (343.04 K, 520.7 kPa, Fluid (supercritical or subcritical phases)): 19.9261 ± 0.047 kg/m3 | mass density (343.04 K, 849.11 kPa, Fluid (supercritical or subcritical phases)): 34.1538 ± 0.05 kg/m3 | mass density (343.04 K, 1093.8 kPa, Fluid (supercritical or subcritical phases)): 45.8644 ± 0.055 kg/m3 | mass density (343.04 K, 1300.4 kPa, Fluid (supercritical or subcritical phases)): 56.7069 ± 0.061 kg/m3 | mass density (343.04 K, 1900.2 kPa, Fluid (supercritical or subcritical phases)): 96.118 ± 0.087 kg/m3 | vapor or sublimation pressure (343.04 K, Liquid): 2110.9 ± 3.8 kPa | mass density (343.04 K, Liquid): 997.091 ± 0.38 kg/m3 | mass density (353.16 K, 136.72 kPa, Fluid (supercritical or subcritical phases)): 4.81465 ± 0.043 kg/m3 | mass density (353.16 K, 500.97 kPa, Fluid (supercritical or subcritical phases)): 18.447 ± 0.045 kg/m3 | mass density (353.16 K, 2000.3 kPa, Fluid (supercritical or subcritical phases)): 94.8889 ± 0.078 kg/m3 | mass density (353.16 K, 2200.5 kPa, Fluid (supercritical or subcritical phases)): 110.087 ± 0.093 kg/m3 | vapor or sublimation pressure (353.16 K, Liquid): 2633.6 ± 4.7 kPa and 2633.7 ± 4.7 kPa | mass density (353.16 K, Liquid): 928.313 ± 0.41 kg/m3 and 928.306 ± 0.41 kg/m3 | mass density (353.17 K, 1000.4 kPa, Fluid (supercritical or subcritical phases)): 39.3925 ± 0.052 kg/m3 | mass density (353.17 K, 1508.8 kPa, Fluid (supercritical or subcritical phases)): 64.532 ± 0.061 kg/m3 | mass density (353.17 K, 2408.1 kPa, Fluid (supercritical or subcritical phases)): 128.821 ± 0.11 kg/m3 | mass density (363.17 K, 153.67 kPa, Fluid (supercritical or subcritical phases)): 5.26494 ± 0.041 kg/m3 | mass density (363.17 K, 500.5 kPa, Fluid (supercritical or subcritical phases)): 17.8052 ± 0.044 kg/m3 | mass density (363.17 K, 1001.1 kPa, Fluid (supercritical or subcritical phases)): 37.7848 ± 0.048 kg/m3 | mass density (363.17 K, 3101.3 kPa, Fluid (supercritical or subcritical phases)): 188.758 ± 0.19 kg/m3 | vapor or sublimation pressure (363.17 K, Liquid): 3245.3 ± 5.6 kPa | mass density (363.17 K, Liquid): 837.765 ± 0.43 kg/m3 | mass density (363.18 K, 1500.8 kPa, Fluid (supercritical or subcritical phases)): 60.7126 ± 0.055 kg/m3 | mass density (363.18 K, 2003.2 kPa, Fluid (supercritical or subcritical phases)): 88.1709 ± 0.069 kg/m3 | mass density (363.18 K, 2500.4 kPa, Fluid (supercritical or subcritical phases)): 122.731 ± 0.095 kg/m3 | mass density (363.18 K, 2800.4 kPa, Fluid (supercritical or subcritical phases)): 150.158 ± 0.13 kg/m3 | mass density (363.18 K, 3002.1 kPa, Fluid (supercritical or subcritical phases)): 174.085 ± 0.16 kg/m3 | vapor or sublimation pressure (363.18 K, Liquid): 3245.5 ± 5.6 kPa | mass density (363.18 K, Liquid): 837.734 ± 0.43 kg/m3
